Data reported in publication PMC2751816, “Functional, Non-Clonal IgM^a-Restricted B Cell Receptor Interactions with the HIV-1 Envelope gp41 Membrane Proximal External Region” (PLoS ONE, 2009).
“Also recorded” adds a separate entry of the source.

Key:
[1] = test system: surface Ig on BALB/c splenic B cells; experiment: Microscopy of BCR cap formation (co-capping); assay type: cell-based, mouse (BALB/c); details: anti-Ig stimulation, Fig. 4F
Procedure: Purified naïve splenic B cells were incubated on ice for 30 min with Alexa 488-labeled wheat germ agglutinin (Invitrogen) and 10 µg/ml R-PE-labeled goat anti-mouse IgM+IgG (H+L) F(ab)2 and APC-labeled gp41 MPER. After extensive washing, cells were stimulated for indicated times. Images were acquired with a Nikon TE2000-E2 inverted microscope employing a 40X magnification lens from a CoolSNAPPHQ2 monochrome camera.

[2] = test system: expressed IgM^+ VH repertoire of splenic BALB/c B cells; experiment: VH family usage in gp41 MPER tetramer-sorted IgM^+ B cells (5' RACE); parameters: species or system mouse (BALB/c); details: compared to total IgM^+ BALB/c B cells; Fisher Exact test; two sorts; Fig. 6B
Excerpt: For sorting of gp41 MPER tetramer-binding B cells, single cell splenic suspensions were obtained from 5–10 naïve BALB/c 8 wk females, pooled, and purified by negative depletion with CD43 MACS beads (Miltenyi Biotechnology). The resulting B cell enriched fraction was stained as described in the flow cytometry methods section and sorted into B220^+ CD19^+ gp41 MPER^+ fractions using a BDFACS Aria. Sorting gates for the gp41 MPER^+ fractions were set to include all events greater than baseline staining without tetramer. Purity of sorted populations was verified by a 1000-event post-sort step.
For 5′ RACE analysis, gp41 MPER^+ fractions (or purified, unsorted splenic B cells) were spun down and washed, immediately after sorting. DNAse-free RNA was extracted and concentrated using RNEasy Mini and Micro kits, respectively (Qiagen) and quantitated using a NanoDrop ND-1000 spectrophotometer (Fisher). cDNA was synthesized by oligo-dT priming using SuperScript III (Invitrogen) and IgM-specific 5′ RACE products were amplified with the First Choice RLM-RACE PCR kit (Ambion), using mouse HC̃-specific primers in combination with 5′ RACE primers, according to the manufacturer's instructions. PCR products were cloned into pGEM-T Easy vectors (Promega), transformed in GC5 competent cells (CLP), and transformant DNA was isolated, sequenced and analyzed in Ig Blast.

BALB/c splenic B cells = experiment: Alanine-substituted gp41 MPER mutant tetramers: binding to BALB/c splenic B cells (flow cytometry); assay type: cell-based, mouse (BALB/c); details: APC mutant tetramers 100 ng/10^6 cells, MFI; average of two experiments; Fig. 7B middle
Excerpt: Figure 7 Mapping of gp41 MPER residues required for high frequency interactions with IgM^a. A) List of peptides (annotated numerically according to position of substitution) used to make mutant tetramers with sequential alanine substitutions (in red) along the gp41 MPER region containing the nominal 2F5 epitope. B) Comparison of gp41 MPER residues required for binding bnAb 2F5 with those required for allotypic interactions with IgM. Shown is relative binding of mutant tetramers with either 2F5 (upper panel), naïve BALB/c total splenic B cells (middle panel), and 9G8 (lower panel). Tetramers with corresponding substituted positions in the 2F5 epitope are indicated on the x-axis, with those in blue and red representing mutated residues with >3 and >10 fold binding reductions, respectively. For measuring mutant tetramer binding to 2F5, unlabeled versions of tetramers were used in SPR analysis, as described in Materials and Methods. […]
N-biotinylated, linker/spacer-containing peptides used to make tetramers are detailed in Table S4 and Fig. 7A. […] Purified tetramer preparations were determined using the Micro BSA protein assay kit (Pierce Biotechnology).
FACS staining of single cell suspensions (≥2×10^6) was conducted using pre-mixed combinations of fluorochrome-labeled Abs and APC-conjugated B cell tetramers at empirically-determined optimal concentrations. […]

[3] = test system: phosphorylated Erk in BALB/c splenic B cells; experiment: Intracellular FACS of phosphorylated Erk1/2; assay type: cell-based, mouse (BALB/c); details: naïve BALB/c splenocytes; gated on ligated B cells; Fig. 8B
Procedure: Splenocyte suspensions were incubated at 37°C for various times with either APC-labeled F(ab)'2 anti-IgM (Jackson ImmunoResearch) or APC-labeled gp41 MPER tetramers. Stimulations were stopped by the addition of PhosFlow Lyse/Fix buffer (BD) and incubation for 10 min at 37°C. Cells were stained with B220-FITC prior to permeabilization with PhosFlow Perm Buffer III (BD). Permeabilized cells were stained with a PE-labeled Ab to Erk1 and Erk2 (BD), according to the manufacturer's instructions. Cells were fixed with 2% paraformaldehyde, and all data were collected and analyzed as done for standard flow cytometry.

## QQEKNEQELLELDKWASLWN [gp41 MPER tetramer, (residues 659–678 of the HIV-1 envelope)]
[1]
  co-capping with surface Ig (in words): co-capped with surface Ig in BALB/c splenic B cells
[2]
  VH family usage in gp41 MPER-reactive B cells (in words): most VH families were utilized at statistically comparable levels in gp41 MPER-reactive B cells, with the exception of two overutilized VH families: 36–60 and 7183
BALB/c splenic B cells
  gp41 MPER residues required for binding (in words): mapped to 660Q and a 677 W, both located outside the core 2F5 epitope
[3]
  Erk phosphorylation (in words): detectable, but dampened induction of phosphorylated Erk; also recorded: peak gp41 MPER-induced Erk phosphorylation persisted at 30 min; also recorded: the entire population of gp41 MPER-gated B cells showed modest Erk activation
